Activity calls are given as the source filed them. The calls are words filed in the database; no cut-off is given here.
How the values were obtained:
[1] = Antibacterial activity against Francisella novicida U112 after 48 hrs; type: functional, Francisella tularensis subsp. novicida U112; details: Francisella tularensis
[2] = Potentiation of FR900098-induced antibacterial activity against Francisella novicida U112 assessed as FR900098 MIC after 48 hrs; type: functional, Francisella tularensis subsp. novicida U112; details: Francisella tularensis
[3] = Potentiation of FR900098-induced antibacterial activity against Francisella novicida U112 assessed as fold reduction in FR900098 MIC after 48 hrs; type: functional, Francisella tularensis subsp. novicida U112
[4] = Antibacterial activity against Francisella philomiragia ATCC 25015 after 48 hrs; type: functional, Francisella philomiragia subsp. philomiragia ATCC 25015; details: ATCC 25015, 48 h
[5] = Potentiation of FR900098-induced antibacterial activity against Francisella philomiragia ATCC 25015 assessed as fold reduction in FR900098 MIC after 48 hrs; type: functional, Francisella philomiragia subsp. philomiragia ATCC 25015
[6] = Potentiation of FR900098-induced antibacterial activity against Francisella novicida U112 assessed as FR900098 MIC at 40 uM after 48 hrs; type: functional, Francisella tularensis subsp. novicida U112; details: Francisella tularensis
[7] = tested on: Francisella tularensis subsp. novicida U112; assay: Bactericidal activity against Francisella novicida U112 at 25% antibacterial MIC up to 24 hrs by time kill curve assay; type: functional
[8] = tested on: Francisella tularensis subsp. novicida U112; assay: Potentiation of FR900098-induced antibacterial activity against Francisella novicida U112 assessed as reduction in FR900098 MIC at <30 uM after 48 hrs; type: functional
[9] = Potentiation of FR900098-induced antibacterial activity against Francisella novicida U112 assessed as fold reduction in FR900098 MIC at 40 uM after 48 hrs; type: functional, Francisella tularensis subsp. novicida U112

CCCCCCc1ccc(C2OCCO2)cc1
MIC [1]: > 200 µM | MIC [2]: 16 mg/L

CCCCCc1ccc(-c2ncco2)cc1
MIC [1]: 200 µM | MIC [2]: 16 mg/L

CCCCCCc1ccc(C2=NCCCO2)cc1
MIC [1]: 50 µM | MIC [2]: 4 mg/L | fold change (FC) [3]: 4

c1ccc2cc(C3=NCCO3)ccc2c1
MIC [1]: 100 µM | MIC [2]: 16 mg/L

CCc1ccc(C2=NCCO2)cc1
MIC [1]: > 200 µM | MIC [2]: 16 mg/L

CCCCCCc1ccc(-c2cncnc2)cc1
MIC [1]: 100 µM | MIC [2]: 4 mg/L | fold change (FC) [3]: 32

CCCCc1ccc(C2=NCCO2)cc1
MIC [1]: > 200 µM | MIC [2]: 4 mg/L | fold change (FC) [3]: 4

Brc1cccc(C2=NCCO2)c1
MIC [1]: > 200 µM | MIC [2]: 16 mg/L

c1ccc(/N=N/c2ccc(C3=NCCO3)cc2)cc1
MIC [1]: > 200 µM | MIC [2]: 16 mg/L

CCCCCCCCCc1ccc(C2=NCCO2)cc1
MIC [1]: > 200 µM | MIC [2]: 16 mg/L | fold change (FC) [3]: 8

CCCCCCc1ccc(-c2c[nH]c(N)n2)cc1
MIC [1]: 12.5 µM | MIC [2]: 32 mg/L

CCCCCCCc1ccc(C2=NCCO2)cc1
MIC [1]: 100 µM | MIC [2]: 2 mg/L | fold change (FC) [3]: 8

CCCCCCc1ccc(C2SCCS2)cc1
MIC [1]: > 200 µM | MIC [2]: 16 mg/L

CCCCCCc1ccc(-c2ncc[nH]2)cc1
MIC [1]: 12.5 µM | MIC [2]: 32 mg/L

c1cc(C2=NCCO2)ccn1
MIC [1]: > 200 µM | MIC [2]: 16 mg/L

CC(=O)N(O)CCCP(=O)(O)O [FR-900098]
MIC [1]: 16 mg/L | MIC [4]: 1020 mg/L

CCCCCCc1ccc(C2=NCCS2)cc1
MIC [1]: > 200 µM | MIC [2]: 2 mg/L | fold change (FC) [3]: 8

CCCc1ccc(C2=NCCO2)cc1
MIC [1]: > 200 µM | MIC [2]: 16 mg/L

CCCCCc1ccc(C2=NCCS2)cc1
MIC [1]: 200 µM | MIC [2]: 1 mg/L | fold change (FC) [3]: 16

Cc1ccc(C2=NCCO2)cc1
MIC [1]: > 200 µM | MIC [2]: 16 mg/L

CCCCCc1ccc(C2=NCCO2)cc1
MIC [1]: 200 µM | MIC [4]: 200 µM | MIC [2]: 4 mg/L | fold change (FC) [5]: 4

CN(C)c1ccc(C2=NCCO2)cc1
MIC [1]: > 200 µM | MIC [2]: 16 mg/L

CCCCCCc1ccc(-c2ncco2)cc1
MIC [1]: > 200 µM | MIC [2]: 16 mg/L

CCCCCCc1ccc(-c2ccncc2)cc1
MIC [1]: 100 µM | MIC [2]: 0.5 mg/L

Fc1cc(C2=NCCO2)ccc1C(F)(F)F
MIC [1]: > 200 µM | MIC [2]: 16 mg/L

Fc1cc(C2=NCCO2)cc(F)c1F
MIC [1]: > 200 µM | MIC [2]: 16 mg/L

CCCCCCCCc1ccc(C2=NCCO2)cc1
MIC [1]: 200 µM | MIC [2]: 2 mg/L | fold change (FC) [3]: 8

CCCCCCc1ccc(C2=NCCO2)cc1
MIC [1]: > 200 µM | MIC [6]: 0.0156 mg/L | fold change (FC) [5]: 32 | Activity [7]: inactive | Activity [8]: inactive | fold change (FC) [9]: 1000

c1ccc(C2=NCCO2)cc1
MIC [1]: > 200 µM | MIC [2]: 16 mg/L

CCCCCCc1ccc(C2=NCCN2)cc1
MIC [1]: 100 µM | MIC [2]: 16 mg/L

CCCCCCCCCCc1ccc(C2=NCCO2)cc1
MIC [1]: > 200 µM | MIC [2]: 16 mg/L | fold change (FC) [3]: 8

CCCCCCc1ccc(C(=O)OC)cc1
MIC [1]: 200 µM | MIC [2]: 8 mg/L

C(=C\c1ccccc1)/C1=NCCO1
MIC [1]: > 200 µM | MIC [2]: 32 mg/L

— ChEMBL document CHEMBL3992489, “Potentiation of the Fosmidomycin analogue FR 900098 with substituted 2-oxazolines against Francisella novicida” (2016)
